The record followed here is patent publication US20260191845A1, “PYRIDINE-2-THIOL 1-OXIDE DERIVATIVES AND THEIR USE FOR TREATMENT OF MAMMALIAN INFECTIONS CAUSED BY MYCOBACTERIUM OR FUNGI” (priority 2022, published 2026).

A word on the MIC: it is the least concentration at which growth counts as inhibited.

The test system of experiment [1] is M. abscessus MDR clinical isolate 1. Put plainly: REMA MIC90, broad spectrum of microorganisms. The experiment is classed as cell-based. The following applies: Mycobacteroides abscessus, M. abscessus MDR clinical isolate 1, resistant to amikacin, clarithromycin, doxycycline, bedaquiline and others, read-out: MIC to Compound 2. How it is done:
(§1) To determine the in vitro activity of compounds (MIC90) against Mycobacterium abscessus ATCC 19977, the resazurin reduction microplate assays (REMA) is performed. Briefly, serial 2-fold dilutions of drug are prepared in 96-well microtiter plates (Fluoronunc, Thermo Fisher, Waltham, MA, USA) in 100 μL of Middlebrook 7H9 medium (Difco), supplemented with 10% OADC without addition of Tween 80. Then, M. abscessus log-phase cultures were diluted (OD600=0.02) and added in the 96-well microtiter plate. Growth controls containing no compound and sterile controls without inoculum are also included. Also, a compound known to be active against M. abscessus growth is included as positive control. After 1 day of incubation at 37° C., 10 μL of resazurin (0.025% w/v) is added to each well, and bacterial viability is assessed after a further 24 h of incubation using a Fluoroskan™ Microplate Fluorometer (Thermo Fisher Scientific, Waltham, MA, USA; excitation=544 nm, emission=590 nm). Bacterial viability was calculated as a percentage of resazurin turnover in the absence of compound (MIC90). […]. Results are expressed as the average of at least three independent replicates and presented on the following Table 1.
(§2) By using the same procedure, the compound according to Example B (compound 2) was tested on broad spectrum of microorganisms and the corresponding results are presented in the below Table 2.

Experiment [2] deals with M. abscessus MDR clinical isolate 2 (from CF patient). Put plainly: REMA MIC90, broad spectrum of microorganisms. The format is cell-based. The settings on record: Mycobacteroides abscessus, resistant to amikacin, amoxicillin, imipenem, linezolid and others, read-out: MIC to Compound 2. How it is done:
as §1, §2

The test system of experiment [3] is M. abscessus clinical isolate n. 10. Put plainly: REMA MIC90, broad spectrum of microorganisms. The experiment is classed as cell-based. The following applies: Mycobacteroides abscessus, M. abscessus clinical isolate n. 10, resistant to moxifloxacin, doxycycline, read-out: MIC to Compound 2. Here is the method:
as §1, §2

Experiment [4] relates to M. abscessus clinical isolate n. 6. Description: REMA MIC90, broad spectrum of microorganisms. The format is cell-based. The following applies: Mycobacteroides abscessus, M. abscessus clinical isolate n. 6, resistant to clarithromycin, moxifloxacin, doxycycline, linezolid, read-out: MIC to Compound 2. How it is done:
as §1, §2

In experiment [5] the test system is M. abscessus clinical isolate n. 7. Description: REMA MIC90, broad spectrum of microorganisms. The experiment is classed as cell-based. The following applies: Mycobacteroides abscessus, M. abscessus clinical isolate n. 7, resistant to clarithromycin, amikacin, moxifloxacin, doxycycline, read-out: MIC to Compound 2. Here is the method:
as §1, §2

The test system of experiment [6] is M. abscessus clinical isolate n. 8. Description: REMA MIC90, broad spectrum of microorganisms. The experiment is classed as cell-based. The following applies: Mycobacteroides abscessus, M. abscessus clinical isolate n. 8, resistant to moxifloxacin, doxycycline, read-out: MIC to Compound 2. Here is the method:
as §1, §2

Experiment [7] has as its system M. abscessus clinical isolate n. 9. Description: REMA MIC90, broad spectrum of microorganisms. The format is cell-based. The following applies: Mycobacteroides abscessus, M. abscessus clinical isolate n. 9, resistant to clarithromycin, moxifloxacin, doxycycline, read-out: MIC to Compound 2. How it is done:
as §1, §2

In experiment [8] the test system is M. avium clinical isolate n. 1. Description: REMA MIC90, broad spectrum of microorganisms. The following applies: Mycobacterium avium, M. avium clinical isolate n. 1, resistant to linezolid, read-out: MIC to Compound 2. The format is cell-based. How it is done: as §1, §2
Experiment [9] deals with M. avium clinical isolate n. 2. Description: REMA MIC90, broad spectrum of microorganisms. The format is cell-based. The settings on record: Mycobacterium avium, M. avium clinical isolate n. 2, resistant to linezolid, read-out: MIC to Compound 2. How it is done:
as §1, §2

The subject of experiment [10] is M. avium clinical isolate n. 3. Put plainly: REMA MIC90, broad spectrum of microorganisms. The format is cell-based. The settings on record: Mycobacterium avium, M. avium clinical isolate n. 3, resistant to linezolid, read-out: MIC to Compound 2. How it is done: as §1, §2
The test system of experiment [11] is M. avium clinical isolate n. 4. Put plainly: REMA MIC90, broad spectrum of microorganisms. The following applies: Mycobacterium avium, M. avium clinical isolate n. 4, resistant to linezolid and Moxifloxacin, read-out: MIC to Compound 2. The format is cell-based. Here is the method: as §1, §2
Experiment [12] concerns MRSA Staphylococcus aureus clinical isolate. Put plainly: REMA MIC90, broad spectrum of microorganisms. The format is cell-based. The following applies: read-out: MIC to Compound 2. How it is done: as §1, §2
Experiment [13] deals with M. avium subsp. avium Chester ATCC15769. Description: REMA MIC90, broad spectrum of microorganisms. The experiment is classed as cell-based. The following applies: Mycobacterium avium, M. avium subsp. avium Chester ATCC15769, Wild-type, read-out: MIC to Compound 2.
For experiment [14], the system named is Pseudomonas aeruginosa PAO1. Description: REMA MIC90, broad spectrum of microorganisms. The experiment is classed as cell-based. The following applies: Pseudomonas aeruginosa PAO1, in presence of efflux inhibitor, read-out: MIC to Compound 2.
The test system of experiment [15] is Staphylococcus aureus ATCC 25923. Put plainly: REMA MIC90, broad spectrum of microorganisms. The experiment is classed as cell-based. The following applies: ATCC25923, read-out: MIC to Compound 2.
The subject of the next experiment is Penicillium notatum. Description: Antifungal agar well diffusion assay. The following applies: 20 μL water solution in 4 mm well. For orientation: In agar diffusion tests the substance spreads into inoculated agar from a disc or well.

The structures appear in SMILES notation.

Protocol for Penicillium notatum: The well diffusion test was performed using Casitone agar. The inoculum used was prepared using the Candida or Aspergillus strains from a 24-hour culture on Sabouraud dextrose agar, a suspension was made in a sterile saline solution (0.85%). The turbidity of the suspension was adjusted with a spectrophotometer at 530 nm to obtain a final concentration to match that of a 0.5 McFarland standard (0.5-2.5×10^3). 20 mL of Bacto-casitone were melted, cooled to 55° C. and then inoculated with 1 mL of the organism suspension. The inoculated agar was poured into the assay plate (9 cm in diameter) and allowed to cool down on a leveled surface.

For `CCOC(=O)c1ccc([S-])[n+]([O-])c1.[Na+]` [Compound 2, Sodium 5-(ethoxycarbonyl)pyridine-2-thiolate 1-oxide], the MIC in experiment [1], in experiment [2], in [3], in experiment [4], in [5] and in [6] was 500 µg/mL in each case. Besides, the MIC in experiment [7] stood at 500 µg/mL; in experiment [8] it was 500 µg/mL; in experiment [9], 500 µg/mL; in [10], 500 µg/mL; in experiment [11] it was 500 µg/mL; in experiment [12] it was 8000 µg/mL. For the same compound, the minimal inhibitory concentration (MIC) in experiment [13] was 500 µg/mL; in experiment [14], 1000 µg/mL; in experiment [15], 8000 µg/mL. Further, the “Inhibition Zone of Test Microorganism” value with Penicillium notatum is 15 mm.
